Results taken from patent publication US20260183303A1, “PDK1 REGULATORY COMPOUND AND COMPOSITION CONTAINING THE SAME” (PROVIBIO CO., LTD., priority 2024, published 2026).

Experiments:
[1] = system: HCT-116 colon cancer cell lines; assay: Invasion Assay using Matrigel, HCT-116; type: cell-based, Human; details: HCT-116, Matrigel, 24 hours treatment, vs DMSO
Experimental: To evaluate the metastasis inhibitory efficacy of the compounds of the present invention on HCT-116 colon cancer cell lines, an Invasion Assay using Matrigel was performed to assess the cells' invasion ability.
First, Matrigel was thawed on ice in RPMI-1640 medium without FBS, then diluted with DMEM at a ratio of 1:20.
The diluted Matrigel mixture was applied to the upper chamber at 100 μl per well, and 750 μl of RPMI-1640 without FBS was added to the lower chamber.
The plates were then incubated at 37° C. for 1 hour to allow the Matrigel to solidify.
After coating, the Matrigel mixture in the upper chamber was removed using a pipette, and the chamber was washed with RPMI without FBS.
Human-derived colorectal cancer cell line HCT-116, obtained from the Korean Cell Bank, was cultured in RPMI-1640 medium containing 10% FBS. […]
After staining was complete, any remaining cells in the upper chamber were removed. Finally, the infiltrated cells were observed under a microscope, photographed, and the degree of infiltration was analyzed.

[2] = system: T cells isolated from mouse spleens; assay: T cell proliferation inhibition (CFSE flow cytometry, anti-CD3/anti-CD28 activation); type: cell-based, C57BL/6 mice; details: mouse spleen T cells, CD3/CD28 activated, cultured three days
Method in brief: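 Splenic T cells from 7-week-old C57BL/6 mice were CFSE-labelled and seeded at 2×10^5/well. They were activated with anti-CD3/anti-CD28 ([…]) and treated with compound at […] in triplicate for 3 days at 37 °C. Proliferation was read by CFSE dilution on flow cytometry and expressed as % inhibition.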

psoriasis-induced mice = assay: In vivo psoriasis model (Aldara cream, Imiquimod); design: species or system BALB/c mice
Experimental: To verify the therapeutic effect of the compound according to the present invention on psoriasis, a psoriasis animal model was established as follows, and the compound according to the present invention was administered to evaluate the alleviation of skin lesions and changes in immune cell patterns.
For the establishment of the psoriasis animal model, BALB/c mice (7 weeks old, female, 20 g) were purchased from HanabioTech Co., Ltd. and acclimatized to the rearing environment for one week.
Subsequently, the hair on the mouse back was shaved using a hair removal device for the first time, and then completely shaved using a depilatory cream (Nicrin Cream (80% thioglycolic acid, II Dong Pharmaceutical)) for the second time. […]
Body weights of mice in each group were measured on days 1, 4, and 8 after the start of injection and psoriasis induction. […]
To evaluate the therapeutic effect in a psoriasis-induced mouse model, the PASI (Psoriasis Area and Severity Index) score was measured.
The PASI score is based on three criteria: erythema, scaling, and skin thickness, each scored from 0 (none) to 4 (severe). […]
Observations were conducted daily at the same time, and the same observer visually assessed each criterion and recorded the scores, with the results presented in FIG. 13. […]
All samples were measured in duplicate, and the absorbance was measured at 450 nm using a microplate reader.

Molecule	number of infiltrated cells (invasion) [1]	Proliferation inhibition rate (%) ([2]; 10 nM)	Proliferation inhibition rate (%) ([2]; 100 nM)	Proliferation inhibition rate (%) ([2]; 1 μM)	Proliferation inhibition rate (%) ([2]; 10 μM)	Proliferation inhibition rate (%) ([2]; 30 μM)	Proliferation inhibition rate (%) ([2]; 50 μM)	efficacy in improving dermatological symptoms (psoriasis-induced mice)
12-(4-Hydroxypiperazin-1-Yl)Dodecyl-N-(6-Aminopurazin-2-Yl)Carboxamide [Compound 10]	reduction in the number of infiltrated cells	100.00	100.00	100.00	100.00	100.00	100.00	–
Nc1nc(NC(=O)CCCCCCCCCCCCN2CCN(CCO)CC2)nc2nc[nH]c12 [Compound 15, 12-[4-(2-Hydroxyethyl)Piperazin-1-Yl]Dodecyl-N-(6-Aminopurine-2-Yl)Carboxamide]	–	–	–	–	–	–	–	excellent efficacy in improving dermatological symptoms
